Experimental data taken from patent publication US10562857B2 (AFASCI, Inc., priority 2015, dated 2020).
“Also recorded” adds a separate entry of the source.

Experiments:
[1] = target: Cav2.2 (N-type Ca channel) (Homo sapiens, UniProt Q00975); test: Patch clamp of Cav2.2 N-type Ca channel; format: cell-based; conditions: Table 2
DRG ion channels Na+ = test: Sodium currents in DRG neurons, patch clamp; format: cell-based, rodent; conditions: Table 2
Procedure: (§1) All the procedures related to animal handling were in strict accordance with NIH guidelines and IACUC approved protocols. Briefly, the spine was taken out and split into two halves from the middle line after sacrificing the mice by decapitation. […] The DRG neurons were minced with fine scissors and incubated at 35° C. for 50 min. […] Finally the cells were dispersed onto poly-1-ornithine-coated cover slips and maintained in a modified Krebs solution with streptomycin sulfate (0.2 mM), Penicillin G Sodium (0.3 mM), and Gentamycin (0.1 mM) at 21° C. […] All experiments were performed at room temperature (around 21° C.). Whole-cell currents were recorded using a MultiClamp 700B amplifier and analyzed offline with pCLAMP10.4 software (Molecular Devices, LLC, Sunnyvale Calif., USA). […] The internal solution was composed (in mM) of 125 CsCl, 10 HEPES (acid), 10 EGTA (ethylene glycol tetraacetic acid), 1 CaCl2, 1 MgCl2, 4 MgATP and 0.3 […] 7.3-7.4 adjusted with CsOH; osmolality verified as 295 mOsm/kg). Since the sodium ions were absent in the external solution, tetrodoctoxin was not needed. […] To record sodium (Na^+) currents in DRG neurons, the external solution used the modified Krebs solution specified above. […] To record potassium currents in DRG neurons, the external solution used the modified Kreb's solution specified above. The internal solution was composed (in mM) of 65 KCl, 80 KF, 5 KOH, 10 EGTA, 2 MgATP (pH 7.3-7.4 adjusted with KOH). Recording electrodes were fabricated using a P-87 puller (Sutter Instrument Co., Novato, Calif., USA). […] All reagents were purchased from Sigma unless specified otherwise. […] Selectivity among the three subtypes of the Cav3 T-type channel, and off-target effects on other key ion channels of the representative example compounds are presented in Table 2. Sodium and potassium channels in the rodent DRG neurons were recorded and tested as described above. The human ether-a-go-go-related gene (hERG) encodes the rapidly activating potassium channel (IKr) contributing to the repolarization of the cardiac action potential. The blockade of hERG can lead to a QT prolongation in the electrocardiogram known as long QT syndrome (Sanguinetti, et al., 1995). Therefore the representative example compounds in Table 2 were tested against the hERG channel.

DRG ion channels K+ = test: Potassium currents in DRG neurons, patch clamp; format: cell-based, rodent; conditions: Table 2
Procedure: as §1

SNI rats = test: Spared nerve injury (SNI) rats, von Frey monofilament test; format: in vivo, rat; conditions: for duration of elevated mechanical thresholds: 10 mg/kg P.O.
Procedure: FIG. 3B. Mechanical pain threshold assessment (von Frey monofilament test) of SNI rats' left hindpaws. Each SNI rat received either EXAMPLE-106, -107, and -115 (each 30 mg/kg, 1 mL I.P.), or vehicle (1 mL I.P. 2% DMSO in 0.5% HPC). Sham rats also received vehicle I.P. injections. […] The sham-vehicle serves as a positive control. Thermal and mechanical pain responses were measured once every hour for 8 consecutive hours after I.P. treatment (n=8 rats per treatment group).
FIG. 4. Mechanical pain threshold assessment (von Frey monofilament test) of left hindpaws in another cohort of SNI rats. Each SNI rat received either EXAMPLE-128, -130, -132, or Z944 (as a reference compound, each 10 mg/kg, 2 mL oral gavage, P.O.). […] Mechanical pain responses were measured at pre-dosing, 1, 2, 4, and 6 hours post-treatment using von Frey monofilament test (n=8 rats per group).
In additional examples shown here, the analgesic effects were further evaluated in another rat species. Baseline thermal and mechanical thresholds of male rats (Sprague-Dawley rats, 275 g-325 g, Harlan) were taken prior to surgery; baseline thresholds were measured on the rats' left hindpaws. Thirty-two rats underwent the SNI surgery on their left hind leg; 8 rats underwent surgery without injury of the nerves as a sham group. Two weeks post-surgery, the thermal thresholds of each rat were reassessed. […] Each rat received either EXAMPLE-106, -107, -115 (each 30 mg/kg, 1 mL I.P.), or vehicle (2% DMSO in 0.5% HPC). Thermal and mechanical thresholds were measured at 1, 2, 3, 4, 5, 6, 7, and 8 hours post-treatment/dosing. […] The drug actions started around 1 hour post-injection and peaked between 2 and 3 hours, and the drug effects gradually declined to pre-treatment levels over 6-7 hours (FIGS. 3A and B).
In another cohort of SNI rats ((n=8 per group)), mechanical thresholds were measured at pre-dosing, 1, 2, 4, and 6 hours post-treatment using von Frey monofilament test.

[2] = 10 mg/kg oral gavage, P.O., 10 mg/kg

Sequence of Cav2.2 (N-type Ca channel) (Q00975 whole entry): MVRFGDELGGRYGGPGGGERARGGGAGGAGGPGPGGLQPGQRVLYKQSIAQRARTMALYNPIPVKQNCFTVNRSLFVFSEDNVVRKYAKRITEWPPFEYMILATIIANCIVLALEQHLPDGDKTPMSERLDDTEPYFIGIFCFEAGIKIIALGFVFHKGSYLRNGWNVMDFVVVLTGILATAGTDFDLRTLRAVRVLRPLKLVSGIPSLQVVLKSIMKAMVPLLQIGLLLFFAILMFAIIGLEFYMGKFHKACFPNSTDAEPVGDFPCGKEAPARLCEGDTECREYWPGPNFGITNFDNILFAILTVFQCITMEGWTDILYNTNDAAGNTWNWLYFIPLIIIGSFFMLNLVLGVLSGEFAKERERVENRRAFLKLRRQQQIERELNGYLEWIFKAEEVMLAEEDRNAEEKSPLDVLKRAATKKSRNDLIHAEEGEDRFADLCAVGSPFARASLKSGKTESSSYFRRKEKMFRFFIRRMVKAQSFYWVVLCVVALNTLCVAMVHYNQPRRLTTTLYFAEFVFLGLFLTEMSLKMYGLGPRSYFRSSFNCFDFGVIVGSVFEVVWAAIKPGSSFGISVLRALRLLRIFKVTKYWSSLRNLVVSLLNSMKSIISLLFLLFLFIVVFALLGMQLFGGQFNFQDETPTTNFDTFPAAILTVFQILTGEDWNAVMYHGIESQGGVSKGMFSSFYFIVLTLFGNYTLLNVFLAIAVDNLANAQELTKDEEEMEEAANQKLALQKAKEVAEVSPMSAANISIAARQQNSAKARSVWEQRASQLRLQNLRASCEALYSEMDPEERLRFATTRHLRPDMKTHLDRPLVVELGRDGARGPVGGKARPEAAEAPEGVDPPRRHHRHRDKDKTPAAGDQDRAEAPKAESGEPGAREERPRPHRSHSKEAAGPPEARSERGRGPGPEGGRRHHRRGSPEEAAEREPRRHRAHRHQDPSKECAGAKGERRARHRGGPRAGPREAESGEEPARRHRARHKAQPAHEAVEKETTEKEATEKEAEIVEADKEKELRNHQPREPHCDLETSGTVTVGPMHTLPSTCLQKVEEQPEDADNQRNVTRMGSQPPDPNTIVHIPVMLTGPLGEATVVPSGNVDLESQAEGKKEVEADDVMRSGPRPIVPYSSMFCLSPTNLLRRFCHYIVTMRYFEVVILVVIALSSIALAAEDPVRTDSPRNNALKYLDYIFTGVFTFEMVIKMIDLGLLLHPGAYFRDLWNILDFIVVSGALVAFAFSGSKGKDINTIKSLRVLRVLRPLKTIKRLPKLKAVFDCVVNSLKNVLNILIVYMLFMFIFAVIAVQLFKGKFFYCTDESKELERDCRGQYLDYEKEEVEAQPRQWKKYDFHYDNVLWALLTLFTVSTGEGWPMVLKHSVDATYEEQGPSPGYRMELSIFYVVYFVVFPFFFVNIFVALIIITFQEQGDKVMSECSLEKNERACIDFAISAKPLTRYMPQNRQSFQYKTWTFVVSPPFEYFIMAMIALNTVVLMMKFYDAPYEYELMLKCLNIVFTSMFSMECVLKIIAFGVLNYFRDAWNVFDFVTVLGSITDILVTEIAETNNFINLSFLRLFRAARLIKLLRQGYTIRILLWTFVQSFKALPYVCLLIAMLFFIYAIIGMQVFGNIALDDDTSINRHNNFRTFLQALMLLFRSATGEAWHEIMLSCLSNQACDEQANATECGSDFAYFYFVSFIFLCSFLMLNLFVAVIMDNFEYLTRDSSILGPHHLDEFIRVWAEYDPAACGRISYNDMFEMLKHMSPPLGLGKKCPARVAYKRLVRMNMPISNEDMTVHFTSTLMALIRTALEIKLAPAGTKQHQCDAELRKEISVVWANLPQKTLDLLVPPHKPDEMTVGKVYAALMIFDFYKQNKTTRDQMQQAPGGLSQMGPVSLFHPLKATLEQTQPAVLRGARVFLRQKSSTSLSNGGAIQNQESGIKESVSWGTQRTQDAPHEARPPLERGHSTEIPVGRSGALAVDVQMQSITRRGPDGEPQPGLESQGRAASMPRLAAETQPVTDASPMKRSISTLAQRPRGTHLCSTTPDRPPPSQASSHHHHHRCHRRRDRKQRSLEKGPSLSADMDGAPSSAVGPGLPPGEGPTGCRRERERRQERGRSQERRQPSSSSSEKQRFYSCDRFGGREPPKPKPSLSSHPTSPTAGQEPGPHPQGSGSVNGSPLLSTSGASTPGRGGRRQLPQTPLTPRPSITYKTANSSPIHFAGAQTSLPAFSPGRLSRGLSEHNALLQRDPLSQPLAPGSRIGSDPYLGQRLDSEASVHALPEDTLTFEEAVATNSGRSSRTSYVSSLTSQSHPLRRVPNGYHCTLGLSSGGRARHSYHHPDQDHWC
Sequence of Cav2.2 (N-type Ca channel) (P54289 25-1103 partner): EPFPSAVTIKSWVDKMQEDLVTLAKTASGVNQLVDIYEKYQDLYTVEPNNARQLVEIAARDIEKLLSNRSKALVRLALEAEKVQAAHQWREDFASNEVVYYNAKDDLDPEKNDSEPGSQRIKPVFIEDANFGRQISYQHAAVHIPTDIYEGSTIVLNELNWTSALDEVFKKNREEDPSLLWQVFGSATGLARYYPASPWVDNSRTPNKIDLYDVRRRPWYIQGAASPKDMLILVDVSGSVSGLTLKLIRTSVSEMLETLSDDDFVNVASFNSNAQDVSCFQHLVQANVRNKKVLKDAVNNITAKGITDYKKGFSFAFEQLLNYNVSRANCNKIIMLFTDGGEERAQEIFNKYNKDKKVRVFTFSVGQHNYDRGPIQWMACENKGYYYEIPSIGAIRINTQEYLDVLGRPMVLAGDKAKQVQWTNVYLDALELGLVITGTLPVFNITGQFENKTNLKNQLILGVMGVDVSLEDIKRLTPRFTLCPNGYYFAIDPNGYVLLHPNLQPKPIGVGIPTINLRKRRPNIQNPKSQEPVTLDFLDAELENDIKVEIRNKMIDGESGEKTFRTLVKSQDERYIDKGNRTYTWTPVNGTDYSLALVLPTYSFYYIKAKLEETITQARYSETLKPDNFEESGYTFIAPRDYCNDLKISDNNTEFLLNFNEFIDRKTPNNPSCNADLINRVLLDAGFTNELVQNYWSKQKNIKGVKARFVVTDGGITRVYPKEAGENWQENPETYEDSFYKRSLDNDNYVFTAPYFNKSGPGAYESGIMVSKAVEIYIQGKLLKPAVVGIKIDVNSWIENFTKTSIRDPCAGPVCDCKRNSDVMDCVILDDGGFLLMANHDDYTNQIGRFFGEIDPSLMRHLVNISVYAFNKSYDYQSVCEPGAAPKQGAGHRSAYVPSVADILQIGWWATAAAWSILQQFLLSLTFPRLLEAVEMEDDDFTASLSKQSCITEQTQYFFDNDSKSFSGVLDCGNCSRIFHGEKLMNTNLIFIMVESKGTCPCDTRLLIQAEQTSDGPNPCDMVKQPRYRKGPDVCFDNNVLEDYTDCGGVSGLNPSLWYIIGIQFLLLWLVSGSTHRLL
Sequence of Cav2.2 (N-type Ca channel) (Q08289 whole entry partner): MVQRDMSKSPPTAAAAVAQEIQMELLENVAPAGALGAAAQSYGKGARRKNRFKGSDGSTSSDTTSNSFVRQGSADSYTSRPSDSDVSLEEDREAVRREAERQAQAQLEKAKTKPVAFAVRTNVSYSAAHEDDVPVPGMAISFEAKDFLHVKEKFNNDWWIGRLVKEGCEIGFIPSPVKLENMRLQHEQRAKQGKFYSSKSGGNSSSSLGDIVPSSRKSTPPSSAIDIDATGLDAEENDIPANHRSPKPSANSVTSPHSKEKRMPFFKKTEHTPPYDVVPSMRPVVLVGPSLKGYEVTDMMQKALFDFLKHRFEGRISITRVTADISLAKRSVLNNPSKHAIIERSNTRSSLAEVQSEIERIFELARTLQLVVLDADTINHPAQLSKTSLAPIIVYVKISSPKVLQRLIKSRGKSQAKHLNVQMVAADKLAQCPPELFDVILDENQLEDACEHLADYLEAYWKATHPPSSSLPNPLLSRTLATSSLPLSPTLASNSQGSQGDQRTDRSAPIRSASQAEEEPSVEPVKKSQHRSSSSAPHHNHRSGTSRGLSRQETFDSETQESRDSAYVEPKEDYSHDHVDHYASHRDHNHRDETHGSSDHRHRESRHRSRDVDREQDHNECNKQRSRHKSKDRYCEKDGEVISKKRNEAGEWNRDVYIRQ

Compound: CC(C)(C)NC(=O)CN1CCC2(CC1)CC2C(=O)Nc1cc(F)cc(C(F)(F)F)c1 (stereo not drawn) [Example 141, 6-(2-(tert-Butylamino)-2-oxoethyl)-N-(3-fluoro-5-(trifluoromethyl)phenyl)-6-azaspiro[2.5]octane-1-carboxamide]
- IC50 [1]: 5.1 µM
- IC50 (DRG ion channels Na+): > 30 µM
- IC50 (DRG ion channels K+): > 30 µM

Compound: O=C(Nc1nnc(-c2ccccc2)o1)c1ccc(Cl)s1 [Example 115, 5-Chloro-N-(5-phenyl-1,3,4-oxadiazol-2-yl)thiophene-2-carboxamide]
- start of drug action post-injection (SNI rats; 30 mg/kg I.P., thermal and mechanical thresholds): around 1 hour
- mechanical pain threshold of left hindpaw (allodynia) (SNI rats; 30 mg/kg, 1 mL I.P.): elevated both thermal and mechanical thresholds; also recorded: reduced allodynia

Compound: CC(C)(C)NC(=O)CN1CCC2(CC1)C[C@H]2C(=O)Nc1cc(C(F)(F)F)cc(C(F)(F)F)c1 (single isomer, unassigned) [Example 132, (R)—N-(3,5-Bis(trifluoromethyl)phenyl)-6-(2-(tert-butylamino)-2-oxoethyl)-6-azaspiro[2.5]octane-1-carboxamide or (S)—N-(3,5-Bis(trifluoromethyl)phenyl)-6-(2-(tert-butylamino)-2-oxoethyl)-6-azaspiro[2.5]octane-1-carboxamide]
- IC50 [1]: 3.1 µM
- IC50 (DRG ion channels Na+): 14.3 µM
- IC50 (DRG ion channels K+): > 100 µM
- duration of elevated mechanical thresholds (SNI rats): approximately 4 hours
- mechanical pain threshold of left hindpaw (allodynia) (SNI rats; [2]): elevated mechanical thresholds; also recorded: reduced allodynia

Compound: CC(C)(C)NC(=O)CN1CCC2(CC1)CC2NC(=O)c1cc(F)cc(Cl)c1 (stereo not drawn) [Example 17, N-(6-(2-(tert-Butylamino)-2-oxoethyl)-6-azaspiro[2.5]octan-1-yl)-3-chloro-5-fluorobenzamide]
- IC50 [1]: > 30 µM
- IC50 (DRG ion channels Na+): > 100 µM
- IC50 (DRG ion channels K+): > 100 µM

Compound: CC(C)(C)CCN1CCC2(CC1)C[C@H]2NC(=O)c1cc(C(F)(F)F)cc(C(F)(F)F)c1 (single isomer, unassigned) [Example 146, (R)—N-(6-(3,3-dimethylbutyl)-6-azaspiro[2.5]octan-1-yl)-3,5-bis(trifluoromethyl)benzamide or (S)—N-(6-(3,3-dimethylbutyl)-6-azaspiro[2.5]octan-1-yl)-3,5-bis(trifluoromethyl)benzamide]
- IC50 [1]: 2.5 µM
- IC50 (DRG ion channels Na+): 8.7 µM
- IC50 (DRG ion channels K+): > 100 µM

Compound: CC(C)(C)NC(=O)CN1CCC2(CC1)C[C@H]2NC(=O)c1cc(Cl)cc(Cl)c1 (single isomer, unassigned) [Example 57, (R)—N-(6-(2-(tert-Butylamino)-2-oxoethyl)-6-azaspiro[2.5]octan-1-yl)-3,5-dichlorobenzamide or (S)—N-(6-(2-(tert-Butylamino)-2-oxoethyl)-6-azaspiro[2.5]octan-1-yl)-3,5-dichlorobenzamide]
- IC50 [1]: > 30 µM
- IC50 (DRG ion channels Na+): 37.2 µM
- IC50 (DRG ion channels K+): > 100 µM

Compound: CC(C)(C)CCN1CCC2(CC1)C[C@H]2NC(=O)c1cc(C(F)(F)F)ccc1Cl (single isomer, unassigned) [Example 147, (R)-2-Chloro-N-(6-(3,3-dimethylbutyl)-6-azaspiro[2.5]octan-1-yl)-5-(trifluoromethyl)benzamide or (S)-2-Chloro-N-(6-(3,3-dimethylbutyl)-6-azaspiro[2.5]octan-1-yl)-5-(trifluoromethyl)benzamide]
- IC50 [1]: 5.6 µM
- IC50 (DRG ion channels Na+): 14.3 µM
- IC50 (DRG ion channels K+): > 100 µM

Compound: CC(C)(C)NC(=O)CN1CCC2(CC1)C[C@H]2NC(=O)C12CC3CC(CC(C3)C1)C2 (single isomer, unassigned) [Example 145, N—((R)-6-(2-(tert-butylamino)-2-oxoethyl)-6-azaspiro[2.5]octan-1-yl)adamantane-1-carboxamide or N—((S)-6-(2-(tert-butylamino)-2-oxoethyl)-6-azaspiro[2.5]octan-1-yl)adamantane-1-carboxamide]
- IC50 [1]: 15.6 µM
- IC50 (DRG ion channels Na+): > 30 µM
- IC50 (DRG ion channels K+): > 30 µM

Compound: CC(C)(C)NC(=O)CN1CCC2(CC1)C[C@H]2NC(=O)c1cc(F)cc(C(F)(F)F)c1 (single isomer, unassigned) [Example 130, (R)—N-(6-(2-(tert-Butylamino)-2-oxoethyl)-6-azaspiro[2.5]octan-1-yl)-3-fluoro-5-(trifluoromethyl)benzamide or (S)—N-(6-(2-(tert-Butylamino)-2-oxoethyl)-6-azaspiro[2.5]octan-1-yl)-3-fluoro-5-(trifluoromethyl)benzamide]
- IC50 [1]: > 30 µM
- IC50 (DRG ion channels Na+): > 100 µM
- IC50 (DRG ion channels K+): > 100 µM
- duration of elevated mechanical thresholds (SNI rats): approximately 4 hours
- mechanical pain threshold of left hindpaw (allodynia) (SNI rats; [2]): elevated mechanical thresholds; also recorded: reduced allodynia

Compound: CC(C)(C)CCN1CCC2(CC1)CC2NC(=O)c1cc(F)cc(Cl)c1 (stereo not drawn) [Example 28, 3-Chloro-N-(6-(3,3-dimethylbutyl)-6-azaspiro[2.5]octan-1-yl)-5-fluorobenzamide]
- IC50 [1]: 9.4 µM
- IC50 (DRG ion channels Na+): 23.4 µM
- IC50 (DRG ion channels K+): ~100 µM

Compound: CC(C)(C)NC(=O)CN1CCC2(CC1)C[C@H]2NC(=O)c1cc(C(F)(F)F)cc(C(F)(F)F)c1 (single isomer, unassigned) [Example 144, ((R)—N-(6-(2-(tert-butylamino)-2-oxoethyl)-6-azaspiro[2.5]octan-1-yl)-3,5-bis(trifluoromethyl)benzamide or (S)—N-(6-(2-(tert-butylamino)-2-oxoethyl)-6-azaspiro[2.5]octan-1-yl)-3,5-bis(trifluoromethyl)benzamide]
- IC50 [1]: 12.3 µM
- IC50 (DRG ion channels Na+): 34.4 µM
- IC50 (DRG ion channels K+): > 30 µM

Compound: CC(C)(C)NC(=O)CN1CCC2(CC1)C[C@H]2NC(=O)c1cc(F)cc(Cl)c1 (single isomer, unassigned) [Example 129, (R)—N-(6-(2-(tert-Butylamino)-2-oxoethyl)-6-azaspiro[2.5]octan-1-yl)-3-chloro-5-fluorobenzamide or (S)—N-(6-(2-(tert-Butylamino)-2-oxoethyl)-6-azaspiro[2.5]octan-1-yl)-3-chloro-5-fluorobenzamide]
- IC50 [1]: > 30 µM
- IC50 (DRG ion channels Na+): > 100 µM
- IC50 (DRG ion channels K+): > 100 µM
